Values of other authors, collected in patent US7074430B2, “Controlled release tramadol tramadol formulation” (Euro-Celtique S.A., priority 1994, dated 2006).

Conditions: value taken for the deconvolution technique

SMILES: COc1cccc([C@@]2(O)CCCC[C@H]2CN(C)C)c1 (racemic) [tramadol, (±)-trans-2-[(dimethylamino)methyl]-1-(3-methoxyphenyl) cyclohexanol]
- elimination half life: 7.8 h
